The values that follow come from patent US10086054B2, “RM2 antigens and use thereof” (ACADEMIA SINICA, priority 2013, dated 2018).

Structures are written as SMILES. Like-named read-outs stand apart in the source and are kept apart here.

The subject of assay [1] is induced IgG antibodies by DT-RM4.7/C34 vaccine. The assay can be described thus: Specificity analysis of antibodies induced by DT-RM4.7/C34 vaccine on glycan microarray. It counts as binding, mouse. To be noted: sera of DT-RM4.7/C34-immunized mice; for binding of induced antibodies to glycan, microarray of STn, DSGG, RM2 antigen, analogs and fragments: FIG. 15; for binding of induced IgG antibodies to glycan: FIG. 14. The protocol: It was observed that these oligosaccharides all contain the same epitope trisaccharide 27 (NeuAcα2→6GlcNAcβ1→3Galβ1→R). To further evaluate the vaccine specificity, a glycan microarray created by STn, DSGG, RM2 antigen, RM2 antigen analogs, and RM2 antigen fragments was constructed (FIG. 15).
Microarrays were printed (BioDot; CartesianTechnologies) by robotic pin (SMP3; TeleChem In-ternational Inc.) deposition of 0.7 nL 100 μM amine-containing glycans in printing buffer (300 mM phosphate buffer, pH 8.5, containing 0.01% TritonX-100) from a […] microtiter plate onto N-Hydroxysuccinimide (NHS)-coated glass slides. Subsequently, a 96-glycan microarray (Fig. S2) was used to determine the polyclonal Ab spectrum of DT-RM series-induced antiserum. Printed slides were allowed to react in an atmosphere of 80% humidity for 1 h followed by desiccation overnight. These slides were stored at room temperature in a desiccator prior to use.
Mouse sera were diluted with 1% BSA/PBST buffer (PBST buffer: PBS and 0.05% Tween-20, pH 7.4). The glycan microarray was blocked with 50 mM ethanolamine for 1 h at 0° C. and washed three times with PBST buffer before use. The serum dilutions were then introduced to the glycan microarray and incubated at 0° C. for 1 h. Next, Cy3-conjugated goat anti-mouse IgG (H+L), IgG1, IgG2a, IgG2b, IgG2c, IgG3, or anti-mouse IgM was added to the microarray slide and then sealed for 1 h incubation at 0° C. in the dark. Finally, the slides were washed three times with PBST, PBST washing buffer, and ddH2O in sequence. The slides were spin-dried for 5 minutes before scanned at 635 nm with a microarray fluorescence chip reader (GenePix 4300A; Molecular Devices Corporation). Scanned images were analyzed with GenePix Pro-6.0 analysis software (Axon Instruments, Union City, Calif., USA).

Assay [2] concerns monoclonal RM2 antibody. The assay can be described thus: Determination of surface dissociation constant (KD,surf) on glycan microarray. In kind it is binding, mouse. On the procedure:
An expanded glycan array containing the synthesized hexasaccharide 1 and its analogs along with the other ninety glycans are incorporated to a glycan array for testing (Figure S4). All glycans were directly immobilized onto NHS-coated glass slides by taking an aliquot from a stock solution of sugar at a fixed concentration (100 μM). The assay involved an initial treatment with RM2 (a mouse IgM anti-RM2 monoclonal antibody, a kind gift from Prof. Saito), followed by incubation with a fluorescein-tagged anti mouse IgM secondary antibody against its primary antibody. After one hour incubation, the slides were washed with ddH2O twice and scanned to show the binding specificity of the antibody to printed oligosaccharides. […] To determine the dissociation the dissociation constants of RM2 and truncated analogs on the surface interacting with the antibody in a multivalent manner, the direct measurement method was experimented (Liang, P. H.; Wang, S. K.; Wong, C. H. J. Am. Chem. Soc. 2007, 129, 11177), using different concentrations of antibodies and printed sugars. […] At the printing concentrations from 100 μM to 6.25 μM, however, it was observed that the KD,surf values measured were narrowly distributed from the individual curves (FIG. 20 and Table 1). Using the same method, the KD,surf values were determined for the truncated RM2 analog 29 interacting with the antibody (FIG. 21 and Table S2).
The slides were spotted with solution of RM2 1 and 29 with concentrations 100, 50, 25, 12.5, and 6.25 μM 2 rows from top to bottom with 5 replicates horizontally placed in each grids. The glycan microarray was blocked with 50 mM ethanolamine for 1 h at 0° C. and washed three times with PBST buffer before use. The monoclonal RM2 antibody was diluted with 3% BSA/PBST buffer (PBST buffer: PBS and 0.05% Tween-20, pH 7.4). Next, Cy3-conjugated goat anti-mouse IgM antibody was added into the diluted solution to precomplex with primary antibody. The precomplexed solution was applied to each well and incubated at 0° C. for 1 h in the dark. Finally, the slides were washed by PBST washing buffer and ddH2O in sequence. The slides were spin-dried for 5 minutes before scanned at 635 nm with a microarray fluorescence chip reader (GenePix 4300A; Molecular Devices Corporation). Scanned images were analyzed with GenePix Pro-6.0 analysis software (Axon Instruments, Union City, Calif., USA).

For assay [3], the system named is RM2 (a mouse IgM anti-RM2 monoclonal antibody). The assay is described as follows: Glycan array binding specificity of monoclonal antibody RM2. The note with it: glycans printed at 100 μM; FIG. 11. On the procedure: An expanded glycan array containing the synthesized hexasaccharide 1 and its analogs along with the other ninety glycans are incorporated to a glycan array for testing (Figure S4). All glycans were directly immobilized onto NHS-coated glass slides by taking an aliquot from a stock solution of sugar at a fixed concentration (100 μM). The assay involved an initial treatment with RM2 (a mouse IgM anti-RM2 monoclonal antibody, a kind gift from Prof. Saito), followed by incubation with a fluorescein-tagged anti mouse IgM secondary antibody against its primary antibody. After one hour incubation, the slides were washed with ddH2O twice and scanned to show the binding specificity of the antibody to printed oligosaccharides. […] To determine the dissociation the dissociation constants of RM2 and truncated analogs on the surface interacting with the antibody in a multivalent manner, the direct measurement method was experimented (Liang, P. H.; Wang, S. K.; Wong, C. H. J. Am. Chem. Soc. 2007, 129, 11177), using different concentrations of antibodies and printed sugars. […] Using the same method, the KD,surf values were determined for the truncated RM2 analog 29 interacting with the antibody (FIG. 21 and Table S2). […]

The mark [4] stands for this setting: antibody RM2, glycan printed on microarray, read-out: KD, surf (nM) ± SD.

Take `CC(=O)NC1C(OC2C(O)C(OCCCCCN)OC(CO)[C@H]2O)OC(CO[C@]2(C(=O)O)CC(O)[C@@H](NC(C)=O)C([C@H](O)[C@H](O)CO)O2)[C@@H](O)C1O` (stereo partly shown) [Compound 34]: the “binding of induced antibodies to glycan, microarray of STn, DSGG, RM2 antigen, analogs and fragments” value (“binding … analogs and fragments” below) in assay [1] is recorded as “a lesser extent”.
With `CC(=O)NC1[C@H](O[C@@H]2[C@H](O)[C@@H](O)[C@H](O[C@H]3[C@H](O)[C@@H](CO[C@]4(C(=O)O)C[C@H](O)[C@@H](NC(C)=O)[C@H]([C@H](O)[C@H](O)CO)O4)O[C@@H](O[C@H]4[C@@H](O)[C@@H](CO)O[C@@H](OCCCCCN)[C@@H]4O)[C@@H]3NC(C)=O)O[C@@H]2CO)O[C@H](CO)[C@H](O)[C@@H]1O` (stereo partly shown) [Compound 29], the Fmax in assay [2] (29 on microarray, printing concentration 6.25 μM) is listed as 51,597; in assay [2] (29 on microarray, printing concentration 12.5 μM), 50,900; in assay [2] (29 on microarray, printing concentration 25 μM) it was 50,970; in assay [2] (29 on microarray, printing concentration 50 μM) it was 59,045; in assay [2] (29 on microarray, printing concentration 100 μM) it was 62,859. Also, the Kd in assay [2] (29 on microarray, printing concentration 6.25 μM, read-out: KD, surf) is 5.13 nM; in assay [2] (29 on microarray, printing concentration 12.5 μM, read-out: KD, surf), 4.05 nM; in assay [2] (29 on microarray, printing concentration 25 μM, read-out: KD, surf) it was 4.5 nM; in assay [2] (29 on microarray, printing concentration 50 μM, read-out: KD, surf), 6.44 nM; in assay [2] (29 on microarray, printing concentration 100 μM, read-out: KD, surf), 6.96 nM; in assay [2] (setting [4]), 5.76 ± 1.14 nM. Moreover, the “binding of induced IgG antibodies to glycan” value in assay [1] was “weaker binding”.
As for `CC(=O)N[C@H]1[C@H](O[C@H]2[C@@H](O)[C@@H](CO)O[C@@H](OCCCCCN)[C@@H]2O)O[C@H](CO[C@]2(C(=O)O)C[C@H](O)[C@@H](NC(C)=O)[C@H]([C@H](O)[C@H](O)CO)O2)[C@@H](O)[C@@H]1O` [Compound 27, (2R,4S,5R,6R)-5-acetamido-2-(((2R,3S,4R,5R,6S)-5-acetamido-6-((2R,3R,4S,5S,6R)-2-(5-aminopentyloxy)-3,5-dihydroxy-6-(hydroxymethyl)tetrahydro-2H-pyran-4-yloxy)-3,4-dihydroxytetrahydro-2H-pyran-2-yl)methoxy)-4-hydroxy-6-((1R,2R)-1,2,3-trihydroxypropyl)tetrahydro-2H-pyran-2-carboxylic acid], in assay [1], the “binding of induced IgG antibodies to glycan” value is reported as “weaker binding”; the “binding … analogs and fragments” value is recorded as “mainly bound”.
As to `CC(=O)N[C@@H]1[C@@H]([C@H](O)[C@H](O)CO)O[C@](O[C@@H]2[C@@H](O)[C@H](O[C@H]3[C@H](O)[C@@H](CO[C@]4(C(=O)O)C[C@H](O)[C@@H](NC(C)=O)[C@H]([C@H](O)[C@H](O)CO)O4)O[C@@H](O[C@H]4[C@@H](O)[C@@H](CO)O[C@@H](OCCCCCN)[C@@H]4O)[C@@H]3NC(C)=O)O[C@H](CO)[C@@H]2O[C@@H]2O[C@H](CO)[C@H](O)[C@H](O)[C@H]2NC(C)=O)(C(=O)O)C[C@H]1O` [Compound 1], the Fmax in assay [2] (RM2 printing concentration 6.25 μM) was 45,483; in assay [2] (RM2 printing concentration 12.5 μM), 45,028; in assay [2] (RM2 printing concentration 25 μM), 47,714; in assay [2] (RM2 printing concentration 50 μM), 53,982; in assay [2] (RM2 printing concentration 100 μM), 55,756. Also, the Kd in assay [2] (RM2 printing concentration 6.25 μM, read-out: KD, surf) was determined as 4.72 nM; in assay [2] (RM2 printing concentration 12.5 μM, read-out: KD, surf), 3.14 nM; in assay [2] (RM2 printing concentration 25 μM, read-out: KD, surf) it was 4.28 nM; in assay [2] (RM2 printing concentration 50 μM, read-out: KD, surf), 5.48 nM; in assay [2] (RM2 printing concentration 100 μM, read-out: KD, surf) it was 5.1 nM; in assay [2] (setting [4]), 4.54 ± 0.903 nM. The “relative binding specificity of RM2 for the epitopes” value in assay [2] (antibody RM2) is on record as “RM2>pentasaccharide 29”. Besides, in assay [3], the “binding specificity of the antibody to printed oligosaccharides” value is “recognize hexasaccharide 1 specifically”. Further, the “binding of induced IgG antibodies to glycan” value in assay [1] is given as “strong binding”. Moreover, the “binding … analogs and fragments” value in assay [1] is reported as “mainly bound”.
As for `CC(=O)N[C@H]1[C@H]([C@H](O)[C@H](O)CO)O[C@@](OC[C@H]2OC(O)[C@H](O)[C@@H](O)[C@H]2O)(C(=O)O)C[C@@H]1O` (stereo partly shown) [NeuAcα2→6Gal, reference compound], in assay [1], the “binding … analogs and fragments” value was “no detectable signal of binding”.
Consider `CC(=O)N[C@H]1[C@H](OCCCCCN)O[C@H](CO[C@]2(C(=O)O)C[C@H](O)[C@@H](NC(C)=O)[C@H]([C@H](O)[C@H](O)CO)O2)[C@@H](O)[C@@H]1O` [Compound 33, (2R,4S,5R,6R)-5-acetamido-2-(((2R,3S,4R,5R,6R)-5-acetamido-6-(5-aminopentyloxy)-3,4-dihydroxytetrahydro-2H-pyran-2-yl)methoxy)-4-hydroxy-6-((1R,2R)-1,2,3-trihydroxypropyl)tetrahydro-2H-pyran-2-carboxylic acid], for which the “binding … analogs and fragments” value in assay [1] is given as “a lesser extent”.
For `CC(=O)N[C@H]1[C@H](O[C@H]2[C@@H](O)[C@@H](CO)O[C@@H](OCCCCCN)[C@@H]2O)O[C@H](CO[C@]2(C(=O)O)C[C@H](O)[C@@H](NC(C)=O)[C@H]([C@H](O)[C@H](O)CO)O2)[C@@H](O)[C@@H]1O[C@@H]1O[C@H](CO)[C@H](O)[C@H](O)[C@H]1O` [Compound 28, (2R,4S,5R,6R)-5-acetamido-2-(((2R,3S,4R,5R,6S)-5-acetamido-6-((2R,3R,4S,5S,6R)-2-(5-aminopentyloxy)-3,5-dihydroxy-6-(hydroxymethyl)tetrahydro-2H-pyran-4-yloxy)-3-hydroxy-4-((2R,3R,4S,5R,6R)-3,4,5-trihydroxy-6-(hydroxymethyl)tetrahydro-2H-pyran-2-yloxy)tetrahydro-2H-pyran-2-yl)methoxy)-4-hydroxy-6-((1R,2R)-1,2,3-trihydroxypropyl)tetrahydro-2H-pyran-2-carboxylic acid], in assay [1], the “binding of induced IgG antibodies to glycan” value is “weaker binding”.
As to `CC(=O)NC1C(O[C@@H]2OC(CO)[C@H](O)C(O[C@@]3(C(=O)O)CC(O)[C@H](NC(C)=O)C([C@H](O)[C@H](O)CO)O3)C2O)[C@H](O)C(CO[C@]2(C(=O)O)CC(O)[C@@H](NC(C)=O)C([C@H](O)[C@H](O)CO)O2)O[C@H]1OC1C(O)[C@H](OCCCCCN)OC(CO)[C@@H]1O` (stereo partly shown) [Compound 30], the “binding of induced IgG antibodies to glycan” value in assay [1] is recorded as “weaker binding”.
